Each structure is given as a SMILES string.

Results on one compound are retold here after US6054441A, “Oxypurine nucleosides and their congeners, and acyl derivatives thereof, for improvement of hematopoiesis” (priority 1995, dated 2000).

Holding throughout (format): in vivo, Balb/C mice
Test [1] relates to hematopoietic recovery after cyclophosphamide. The test can be described thus: Hematopoietic recovery after cyclophosphamide (Example 50). The settings on record: day 5; 2 μmoles/mouse. How it is done:
Cyclophosphamide (CP) (275 mg/kg, i.p.) was administered to 96 Balb/C female mice weighing approximately 20 grams each. Twenty-four hours later and each day thereafter mice were given a 0.4 ml i.p. injection of either Tween-80 (0.2%) (controls), palmitoyldeoxyguanosine (2 μmoles/mouse), palmitoyldeoxyinosine (2 μmoles/mouse), palmitoylacyclovir (2 μmoles/mouse), palmitoylarabinosylguanine (2 μmoles/mouse), palmitoylarabinosylhypoxanthine (2 μmoles/mouse), monopalmitoylguanosine 2',3'-acyclic dialcohol (2 μmoles/mouse), and palmitoyl-8-thioguanosine (2 μmoles/mouse). On days 5 and 7 following CP administration 6 animals in each of the 8 groups were bled and then sacrificed by cervical dislocation. Spleens were removed and weighed, and complete blood cell counts performed.

The subject of test [2] is hematopoietic recovery after 5-fluorouracil. Description: Hematopoietic recovery after 5-fluorouracil (Example 42). How it is done: 5-fluorouracil (5-FU) (150 mg/kg, i.p.) was administered to forty Balb/C female mice weighing approximately 20 grams each. Twenty-four hours later and each day thereafter for a total of 8 days, mice were given a 0.4 ml i.p. injection of either physiological saline (controls) or 5'-O-palmitoylguanosine (2.5 μmoles/mouse/day in 0.2% Tween 80). On days 7 and 14 following 5-FU administration half of the animals from each group were bled and then were sacrificed by cervical dislocation. Spleens were removed and weighed, and complete blood cells counts performed.

A further test relates to bone marrow cells. The test can be described thus: Colony forming units in bone marrow of mice recovering from cyclophosphamide (Example 40). The settings on record: 2.5 μmoles/mouse/day i.p. As for the experimental part:
Seventy-two Balb/C female mice weighing approximately 20 grams each were given cyclophosphamide (275 mg/kg) by intraperitoneal (i.p.) injection. Twenty-four hours later and each day thereafter, mice received a 0.4 ml i.p. injection of either physiological saline (control) or palmitoylguanosine (2.5 μmoles/mouse/day in 0.2% Tween 80). On days 3, 5, 7, and 10 following CP administration 6 animals from each group were sacrificed by cervical dislocation, and the left femur of each animal obtained by sterile means. The bone marrow cells were then flushed from the femurs with McCoy's 5a Modified medium using a 23-gauge needle. Cells from femurs in the same group were pooled, dispersed by briefly vortexing, and counted using a hemocytometer. Cell suspensions were added to McCoy's Modified 5a medium containing 15% bovine calf serum, 1x Kanamycin, 0.3% agar, and 3% endotoxin-stimulated serum. […] Each group was plated in quintuplicate. After 7 days in culture (at 37° in 5% CO2 and humidified air) aggregates of 50 cells or more ("colonies") were counted using a dissecting microscope at 25x.

Take `CCCCCCCCCCCCCCCC(=O)OC[C@H]1O[C@@H](n2cnc3c(=O)[nH]c(N)nc32)[C@H](O)[C@@H]1O`: the spleen weight entry in test [1] is “significantly elevated”; in test [2] (day 7, 2.5 μmoles/mouse/day i.p.) it was “slight, but statistically significant, increase in spleen weight”; in test [2] (day 14) it was “significantly heavier spleens”. The other parameters entry in test [2] (day 7, vs control) is on record as “No other differences”. In addition, the Lymphocytes entry in test [2] (day 14) is reported as “significantly higher numbers”. Moreover, the Neutrophils entry in test [2] (day 14) was “significantly higher numbers”. Besides, in test [2] (day 14), the Platelets result is on record as “significantly higher numbers”. Further, the total leukocytes entry in test [2] (day 14) is “significantly higher numbers”. In addition, the colony-forming units in the test on bone marrow cells (day 3) is 645 ± 26 colonyforming units per femur; with bone marrow cells (day 5) it was 2327 ± 121 colonyforming units per femur; with bone marrow cells (day 7), 1328 ± 140 colonyforming units per femur; in the test with bone marrow cells (day 10), 647 ± 25 colonyforming units per femur.
